Activity calls are given as the source filed them.
Experiments:
[1] = target: T1, Heat shock factor protein 1 (Mus musculus, UniProt P38532); assay: HSF1 potentiators in luciferase reporter cells, confirmation, cell-based, NIH3T3, luminescence, dose retest (AID 435004); assay type: functional;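 note: stress induced by proteasome inhibitor MG132 added 30 min after compound; luciferase reporter driven by HSF1 response element in NIH3T3 cells; actives raise luminescence as potentiators of the MG132 stress response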
T1 sequence (P38532 whole entry): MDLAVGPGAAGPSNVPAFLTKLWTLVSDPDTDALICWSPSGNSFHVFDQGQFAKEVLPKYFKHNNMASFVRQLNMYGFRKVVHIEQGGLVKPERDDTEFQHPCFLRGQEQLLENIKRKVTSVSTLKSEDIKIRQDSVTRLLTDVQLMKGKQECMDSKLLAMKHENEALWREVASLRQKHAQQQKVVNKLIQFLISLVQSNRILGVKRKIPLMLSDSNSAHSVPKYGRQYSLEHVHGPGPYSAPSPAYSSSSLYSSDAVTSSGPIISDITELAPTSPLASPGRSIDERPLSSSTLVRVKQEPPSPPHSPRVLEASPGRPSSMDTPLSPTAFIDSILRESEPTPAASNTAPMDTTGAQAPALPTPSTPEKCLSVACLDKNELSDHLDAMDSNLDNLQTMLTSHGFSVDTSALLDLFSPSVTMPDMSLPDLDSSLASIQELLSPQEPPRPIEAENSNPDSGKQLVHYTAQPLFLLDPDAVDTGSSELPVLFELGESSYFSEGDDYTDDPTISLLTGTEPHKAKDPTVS

[2] = target: T2, Ubiquitin-conjugating enzyme E2 N (Homo sapiens, UniProt P61088); assay type: functional;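 note: Dose-response confirmation in a TR-FRET assay detecting UBC13-driven polyubiquitin chain formation, inhibition measured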
T2 sequence (P61088 whole entry): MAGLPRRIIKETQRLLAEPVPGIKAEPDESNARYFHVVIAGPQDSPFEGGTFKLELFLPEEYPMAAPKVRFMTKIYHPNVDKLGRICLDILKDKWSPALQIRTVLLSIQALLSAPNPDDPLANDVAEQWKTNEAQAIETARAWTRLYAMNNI

H9c2 = assay: cells; assay type: functional, cell-based; settings: Rattus norvegicus, H9c2, Myocardium;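 note: confirmatory concentration-response retest of ultra-high-throughput screening hits for modulation of myocardial damage; cell death induced by hydrogen peroxide oxidative stress; compound pretreatment for 60 min then peroxide exposure for 2 h; potency is for protecting the cells against peroxide damage rather than for killing them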
[3] = target: T3, Short transient receptor potential channel 4 (Mus musculus, UniProt Q9QUQ5); assay: mouse TRPC4 channel inhibitors, dose response, cell-based, HEK293 TRPC4/mu-opioid, Fluo-4 calcium (AID 434942); assay type: functional;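 note: potency of inhibitors blocking the TRPC4 calcium response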
T3 sequence (Q9QUQ5 whole entry): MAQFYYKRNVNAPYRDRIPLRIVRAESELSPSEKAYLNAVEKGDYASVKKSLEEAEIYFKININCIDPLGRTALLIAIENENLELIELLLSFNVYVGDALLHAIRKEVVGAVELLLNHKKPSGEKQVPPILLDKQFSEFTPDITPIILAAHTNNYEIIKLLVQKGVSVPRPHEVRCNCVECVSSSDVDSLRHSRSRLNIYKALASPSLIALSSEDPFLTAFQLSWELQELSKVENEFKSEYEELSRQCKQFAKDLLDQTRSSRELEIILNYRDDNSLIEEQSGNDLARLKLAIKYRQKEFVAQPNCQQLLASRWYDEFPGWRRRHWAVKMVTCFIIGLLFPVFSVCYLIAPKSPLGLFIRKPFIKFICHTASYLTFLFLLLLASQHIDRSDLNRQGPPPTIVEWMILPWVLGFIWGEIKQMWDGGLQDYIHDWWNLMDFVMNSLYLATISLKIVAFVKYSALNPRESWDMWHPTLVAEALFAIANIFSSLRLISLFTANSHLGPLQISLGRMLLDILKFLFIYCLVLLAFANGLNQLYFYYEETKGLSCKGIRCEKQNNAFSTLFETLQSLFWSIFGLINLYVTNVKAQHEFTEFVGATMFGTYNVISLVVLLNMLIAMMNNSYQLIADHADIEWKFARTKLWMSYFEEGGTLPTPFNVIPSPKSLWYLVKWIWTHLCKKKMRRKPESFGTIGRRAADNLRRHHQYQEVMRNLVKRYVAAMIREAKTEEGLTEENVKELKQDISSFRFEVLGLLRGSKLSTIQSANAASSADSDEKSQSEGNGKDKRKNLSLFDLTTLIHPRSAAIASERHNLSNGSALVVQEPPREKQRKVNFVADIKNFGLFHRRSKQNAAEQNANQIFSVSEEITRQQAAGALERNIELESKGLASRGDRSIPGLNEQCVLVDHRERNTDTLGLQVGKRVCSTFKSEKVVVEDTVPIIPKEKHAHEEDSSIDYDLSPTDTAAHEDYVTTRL

Cytochrome P450 2D6 = Cytochrome P450 2D6 (Homo sapiens, UniProt P10635);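 note: CYP2D6 member of a cytochrome P450 panel assay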
Cytochrome P450 2C19 = Cytochrome P450 2C19 (Homo sapiens, UniProt P33261); assay: Cytochrome panel assay with activity outcomes. Panel member name: p450-cyp2c19 Compounds with AC50 equal or less than 10 uM are considered active; assay type: functional; settings: read-out: AC50
Cytochrome P450 2C9 = Cytochrome P450 2C9 (Homo sapiens, UniProt P11712)
[4] = Shn3 3'UTR reporter inhibitors, dose response, cell-based, Clone20 osteoblasts, firefly luciferase, cherry-picked (AID 624132); assay type: functional;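 note: firefly luciferase luminescence from reporter carrying the Shn3 3'UTR in osteoblasts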
INS1 = assay: beta cell apoptosis inhibitors, cytokine rescue, dose response, luminescence, retest (AID 449756); assay type: functional, cell-based; settings: Rattus norvegicus;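 note: cell death triggered by IL-1 beta plus TNF-alpha plus IFN-gamma mixture; protective hits raise ATP signal compared with cytokine alone wells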
[5] = control 3'UTR Renilla luciferase suppression, dose response, counter-screen for Shn3 inhibitor project, cell-based, Clone20-Shn3RL, cherry-picked (AID 624133); assay type: functional
[6] = tested on: Streptococcus sp. 'group A'; assay: growth inhibition of control SK(-) GAS strain, dose response, counter-screen for streptokinase expression inhibitor project, luminescence, kanamycin, BacTiterGlo, confirmation (AID 1900); assay type: functional, organism-based
Streptococcus = assay: Group A Streptococcus viability loss, dose response, counter-screen for streptokinase expression inhibitor project, luminescence, BacTiterGlo (AID 1915); assay type: functional, organism-based;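 note: potency for reduction of bacterial viability or growth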
Streptokinase A = target: T4, Streptokinase A (Streptococcus pyogenes serotype M1, UniProt P10520); assay: S. pyogenes streptokinase expression inhibitors, potency, dose response, plasminogen activation absorbance, OD405 (AID 1914); assay type: functional, Streptococcus pyogenes M1 GAS;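 note: secreted streptokinase activity via plasminogen activation per viability signal from cell pellet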
T4 sequence (P10520 whole entry): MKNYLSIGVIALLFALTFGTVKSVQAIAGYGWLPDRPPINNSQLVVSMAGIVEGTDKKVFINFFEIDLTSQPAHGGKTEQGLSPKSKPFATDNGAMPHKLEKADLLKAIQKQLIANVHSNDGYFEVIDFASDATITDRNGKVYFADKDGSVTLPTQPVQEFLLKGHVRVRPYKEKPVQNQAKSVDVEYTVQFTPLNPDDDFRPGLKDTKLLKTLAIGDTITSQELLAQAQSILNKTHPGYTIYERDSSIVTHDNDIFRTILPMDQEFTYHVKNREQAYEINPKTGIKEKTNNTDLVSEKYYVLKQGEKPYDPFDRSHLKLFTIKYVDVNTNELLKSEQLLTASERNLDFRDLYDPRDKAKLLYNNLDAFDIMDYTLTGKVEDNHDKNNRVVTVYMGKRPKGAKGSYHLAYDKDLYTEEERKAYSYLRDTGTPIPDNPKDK

BJ [7] = assay: cytotoxicity toward BJ-TERT fibroblasts, dose response, cell-based, RAS-independent, luminescence (AID 1933); assay type: functional; settings: Homo sapiens
BJ [8] = assay: cells; assay type: functional, cell-based; settings: Homo sapiens
[9] = cytotoxicity toward DRD oncogenic fibroblasts, dose response, cell-based, non-viral oncogenic, luminescence (AID 1934); assay type: functional; settings: Homo sapiens
BJ [10] = assay: cytotoxicity toward BJ-TERT-LT-ST fibroblasts, dose response, cell-based, RAS-independent, luminescence (AID 1935); assay type: functional; settings: Homo sapiens;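 note: BJ fibroblasts immortalized with TERT plus LT and ST oncogenes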
[11] = target: T5, Rac GTPase-activating protein 1 (Homo sapiens, UniProt Q9H0H5); assay: MgcRacGAP GTPase-activating activity inhibitors, confirmation, biochemical, ADP Hunter fluorescence, primary and confirmatory (AID 624330); assay type: functional
T5 sequence (Q9H0H5 whole entry): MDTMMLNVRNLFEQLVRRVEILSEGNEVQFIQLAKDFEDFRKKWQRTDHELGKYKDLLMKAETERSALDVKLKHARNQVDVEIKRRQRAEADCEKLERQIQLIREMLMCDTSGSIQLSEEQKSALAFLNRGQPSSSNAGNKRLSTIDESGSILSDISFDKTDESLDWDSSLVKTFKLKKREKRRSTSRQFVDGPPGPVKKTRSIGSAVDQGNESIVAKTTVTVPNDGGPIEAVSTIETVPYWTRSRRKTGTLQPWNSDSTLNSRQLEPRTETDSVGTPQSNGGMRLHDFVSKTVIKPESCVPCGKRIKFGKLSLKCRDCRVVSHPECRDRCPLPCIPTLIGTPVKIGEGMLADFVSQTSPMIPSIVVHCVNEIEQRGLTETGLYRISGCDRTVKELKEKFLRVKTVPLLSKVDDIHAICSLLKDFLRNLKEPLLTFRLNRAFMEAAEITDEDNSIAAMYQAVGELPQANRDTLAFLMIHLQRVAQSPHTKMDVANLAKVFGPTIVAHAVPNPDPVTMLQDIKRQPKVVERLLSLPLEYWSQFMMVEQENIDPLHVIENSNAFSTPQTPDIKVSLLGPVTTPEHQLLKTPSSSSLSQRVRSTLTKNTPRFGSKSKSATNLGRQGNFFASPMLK

[12] = target: FAD-linked sulfhydryl oxidase ALR (Homo sapiens, UniProt P55789); assay: inhibitors of human ALR sulfhydryl oxidase, dose response, biochemical, H2O2 detection, luminescence, cherry-pick (AID 493248)
Sequence of FAD-linked sulfhydryl oxidase ALR (P55789 whole entry): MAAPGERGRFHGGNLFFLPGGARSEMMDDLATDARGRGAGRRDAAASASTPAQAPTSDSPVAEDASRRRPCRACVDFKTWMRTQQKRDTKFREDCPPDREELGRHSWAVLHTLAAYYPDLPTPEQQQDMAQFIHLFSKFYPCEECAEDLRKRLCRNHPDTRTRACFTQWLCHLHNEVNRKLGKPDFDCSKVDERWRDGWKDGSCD

Sequence of Cytochrome P450 2C9 (P11712 whole entry): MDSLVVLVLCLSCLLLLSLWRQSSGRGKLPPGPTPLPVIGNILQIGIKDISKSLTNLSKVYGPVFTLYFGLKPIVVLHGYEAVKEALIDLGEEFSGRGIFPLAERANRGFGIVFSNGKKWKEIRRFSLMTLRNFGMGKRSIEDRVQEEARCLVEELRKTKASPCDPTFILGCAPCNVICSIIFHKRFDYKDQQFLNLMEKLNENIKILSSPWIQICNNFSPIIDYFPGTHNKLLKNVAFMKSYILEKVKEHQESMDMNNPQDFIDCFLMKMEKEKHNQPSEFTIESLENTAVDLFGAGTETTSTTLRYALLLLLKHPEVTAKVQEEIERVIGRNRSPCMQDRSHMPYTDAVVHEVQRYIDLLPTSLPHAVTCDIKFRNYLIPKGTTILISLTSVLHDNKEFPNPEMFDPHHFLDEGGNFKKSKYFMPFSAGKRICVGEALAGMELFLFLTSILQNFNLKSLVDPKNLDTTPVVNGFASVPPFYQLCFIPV
Sequence of Cytochrome P450 2D6 (P10635 whole entry): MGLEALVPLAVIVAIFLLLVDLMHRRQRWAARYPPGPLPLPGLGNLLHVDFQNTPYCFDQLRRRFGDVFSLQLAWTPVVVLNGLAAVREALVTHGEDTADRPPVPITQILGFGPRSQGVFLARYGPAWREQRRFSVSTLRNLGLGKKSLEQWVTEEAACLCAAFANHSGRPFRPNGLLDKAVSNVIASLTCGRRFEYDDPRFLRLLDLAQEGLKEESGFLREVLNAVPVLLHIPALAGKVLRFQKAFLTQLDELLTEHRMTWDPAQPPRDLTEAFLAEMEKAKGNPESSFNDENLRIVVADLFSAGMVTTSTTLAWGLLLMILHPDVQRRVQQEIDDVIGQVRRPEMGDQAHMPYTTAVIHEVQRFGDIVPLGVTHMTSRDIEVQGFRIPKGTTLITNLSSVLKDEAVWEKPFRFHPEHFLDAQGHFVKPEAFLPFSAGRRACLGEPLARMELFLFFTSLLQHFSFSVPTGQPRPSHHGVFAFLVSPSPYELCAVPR
Sequence of Cytochrome P450 2C19 (P33261 whole entry): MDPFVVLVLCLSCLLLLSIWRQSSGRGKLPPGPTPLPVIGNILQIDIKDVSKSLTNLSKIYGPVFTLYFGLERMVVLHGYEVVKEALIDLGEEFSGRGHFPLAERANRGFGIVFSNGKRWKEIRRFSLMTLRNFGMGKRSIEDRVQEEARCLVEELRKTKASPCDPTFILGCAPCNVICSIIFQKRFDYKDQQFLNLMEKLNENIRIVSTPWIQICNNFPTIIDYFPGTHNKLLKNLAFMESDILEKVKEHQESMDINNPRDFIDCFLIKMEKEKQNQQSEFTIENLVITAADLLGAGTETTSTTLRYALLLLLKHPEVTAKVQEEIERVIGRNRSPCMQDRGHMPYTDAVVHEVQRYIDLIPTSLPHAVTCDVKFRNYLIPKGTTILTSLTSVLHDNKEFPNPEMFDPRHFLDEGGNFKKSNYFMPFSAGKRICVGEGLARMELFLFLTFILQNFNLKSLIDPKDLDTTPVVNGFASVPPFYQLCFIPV

C=CC[C@@H]1Cc2c(Br)ccc(Br)c2[C@@H](CC=C)N1
EC50 [1]: > 260 µM (inactive)

Cc1ccc(CNC(=O)[C@H](C)N2C(=O)N3CCc4c([nH]c5ccccc45)[C@@]3(C)C2=O)cc1
EC50 [1]: > 260 µM (inactive)

Cc1ccc(C)c(N2CCN(CCCNC(=O)CCC(=O)N3CCOc4ccc(Cl)cc43)CC2)c1
IC50 [2]: > 20 µM (inactive)

CCOc1cc(/C=N/NC(N)=O)cc(Br)c1OCC(=O)Nc1cccc2ccccc12
IC50 (H9c2): > 79 µM (inactive)

CC(C)Cn1c(N)c(C(=O)COC(=O)CCc2nc(O)c3ccccc3n2)c(=O)n(C)c1=O
IC50 (H9c2): > 79 µM (inactive)

CN=C(S)N1CCN(C(c2ccccc2)c2ccccc2)CC1
EC50 [3]: 8.41 µM (active)

COc1ccc(N(CC(=O)N/N=C/c2cccs2)S(=O)(=O)c2ccc(OC)c(OC)c2)cc1
AC50 (Cytochrome P450 2D6): 31.6 µM (inconclusive)
IC50 (H9c2): > 79 µM (inactive)
AC50 (Cytochrome P450 2C19): 0.0178 µM (inconclusive)
AC50 (Cytochrome P450 2C9): 4.47 µM (inconclusive)

C#CCOCCOCCOCCNc1nc(N2CCN(C(=O)[C@H](CCCCN)n3cc([C@@H](N)CO)nn3)CC2)nc(N2CCN(C(=O)[C@H](CCCCN)n3cc([C@@H](N)CC(C)C)nn3)CC2)n1
IC50 [2]: > 20 µM (inactive)

CCS(=O)(=O)c1ncc(Cl)c(C(=O)Nc2ccccc2OC)n1
AC50 [4]: 3.71 µM (active)
EC50 [1]: 8.04 µM (active)
AC50 (INS1): 38.9 µM (active)
AC50 [5]: 4.81 µM (active)

CC(=O)/N=c1\sccn1CC(=O)c1ccc([N+](=O)[O-])cc1
AC50 (Cytochrome P450 2D6): 14.1 µM (inconclusive)
EC50 [1]: > 260 µM (inactive)
AC50 (Cytochrome P450 2C9): 0.0794 µM (inconclusive)

Clc1ccccc1CSc1nc2cc[nH]cc-2n1
EC50 [3]: 2.99 µM (active)

CCCCCCCCCCCC(=O)c1c(O)cccc1O
EC50 [6]: 1.53 µM (active)
EC50 (Streptococcus): 7.15 µM (active)
EC50 [1]: 60.1 µM (active)
EC50 (Streptokinase A): > 150 µM (not active)

Oc1nc2cccc(Cl)c2c2ccccc12
IC50 (H9c2): 39.6 µM (inactive)

COCCCN(Cc1ccco1)C(=O)Cn1ncc2c3ccccc3nc-2c1O
IC50 (H9c2): > 79 µM (inactive)

Cc1cc(C)cc(OCC(=O)Nc2cccc(-c3nc4ncccc4o3)c2)c1
IC50 (H9c2): > 79 µM (inactive)

COc1ccc(-c2cc(C(=O)N(C)Cc3ccc(OC)c(OC)c3OC)c3ccccc3n2)cc1OC
IC50 (H9c2): > 79 µM (inactive)

COc1cc(C(=O)Nc2ccc(C)cc2)c2ccccc2n1
EC50 (BJ [7]): 1.15 µM (inconclusive)
EC50 (BJ [8]): 22.9 µM (active)
EC50 [9]: 0.707 µM (inconclusive)
EC50 (BJ [10]): 12.8 µM (inconclusive)

O=c1c2ccccc2sc2nc(C3CCCCC3)n(Cc3ccco3)c(=O)c12
EC50 [1]: 47.8 µM (active)

CN(CC(=O)Nc1ccc(F)cc1)C(=O)CCc1nc(O)c2ccccc2n1
IC50 (H9c2): > 79 µM (inactive)

CCn1c(NCc2c[nH]c3ccccc23)nc2ccccc21
EC50 [3]: 3.35 µM (active)

COc1ccc(CN2CCN(Cc3ccccc3F)CC2)c(OC)c1
IC50 [11]: 70.3 µM (active)
EC50 [3]: 4.22 µM (active)

Nc1cc(C(F)(F)F)ccc1Nc1ccccc1
AC50 [12]: 14.6 µM (active)
EC50 [3]: 4.22 µM (active)

CCC(C)[C@H](Nc1nc(-c2ccccc2)nc2c1oc1ccccc12)C(=O)O (stereo partly drawn)
EC50 [3]: 7.5 µM (active)

COC(=O)c1cc(S(=O)(=O)C(C)C)c([S+](C)[O-])s1 (stereo not drawn)
EC50 [1]: 93.8 µM (active)

COc1ccc(/C=C/C(=O)Oc2cc(O)cc(O)c2)cc1
EC50 [3]: 3.76 µM (active)

Cc1cccc(C(=O)Nc2sc(-c3ccccc3)cc2C(=O)O)c1
EC50 [3]: 2.11 µM (active)

Cc1cn(Cc2ccccc2Cn2cc(C)c(=O)[nH]c2=O)c(=O)[nH]c1=O
EC50 [1]: > 260 µM (inactive)
